Some test systems named below: TK-10; UACC-62; M14; HCT-15; OVCAR-5; SF-295; SK-OV-3; HOP-92; 786-0; U-251; MDA-MB-435; MCF7; OVCAR-8; HCC 2998; BT-549; SN12C; SW-620; LOX IMVI; MOLT-4; NCI-H226.
Common to all, as to assay: growth of human tumour cells (NCI), 48 h

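Grown in 96-well plates, cells were treated for 48 hours with each compound at five concentrations. Insufficient inhibition: endpoint recorded as highest concentration tested. At the GI50, growth is halved.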 The source made the active and inactive calls. Cut-off read from the data, not from the text of the source: active = GI50 up to about 1.1 µM and inactive = higher. Some results are limits rather than exact numbers.

Take `CS(=O)(=O)OC1CCN(C2(c3cccc(O)c3)CCCCC2)CC1`: the GI50 in the assay with TK-10 was > 100 µM (inactive); in the assay with UACC-62, 88.5 µM (inactive); in the assay with M14, 43 µM (inactive); with HCT-15 it was 79.1 µM; in the assay on OVCAR-5, > 100 µM (inactive); with SF-295, 36 µM (inactive). The GI50 with SK-OV-3 is 37 µM (inactive); in the assay with HOP-92, 51.3 µM (inactive); in the assay with 786-0, 27.4 µM (inactive); with U-251, 64.7 µM (inactive); in the assay on MDA-MB-435, 29.2 µM (inactive); in the assay with MCF7, 31.8 µM (inactive). Further, the GI50 in the assay with OVCAR-8 was 57.7 µM (inactive); with HCC 2998, 20.6 µM (inactive); with BT-549 it was 46.2 µM (inactive); in the assay with SN12C, 32.9 µM (inactive); in the assay on SW-620 it was 29.9 µM (inactive); with LOX IMVI, 21.8 µM (inactive). The figures for the GI50 in the assay on MOLT-4 and in the assay on NCI-H226 were 27.8 µM (inactive) and > 100 µM (inactive), respectively.

Regarding `CN(C)CC1CCCc2ccccc2C1=O` (stereo not given), the GI50 was 3.83 µM (inactive) in the assay on TK-10; 2.31 µM (inactive) in the assay with UACC-62; 1.85 µM (inactive) in the assay with M14; 1.79 µM in the assay with HCT-15; 17.5 µM (inactive) with OVCAR-5; 17.3 µM (inactive) with SF-295. For the same compound, the GI50 in the assay with SK-OV-3 was 18.3 µM (inactive); in the assay on HOP-92, 16 µM (inactive); in the assay on 786-0, 1.47 µM (inactive); in the assay on U-251, 1.6 µM (inactive); in the assay on MDA-MB-435, 0.897 µM (active); in the assay with MCF7 it was 0.231 µM (active). The GI50 was 2.13 µM (inactive) in the assay with OVCAR-8; 6.31 µM (inactive) with HCC 2998; 5.06 µM (inactive) in the assay on BT-549; 7.4 µM (inactive) in the assay with SN12C; 0.54 µM (active) with SW-620; 2.16 µM (inactive) in the assay with LOX IMVI. Moreover, the GI50 is 0.269 µM (active) in the assay on MOLT-4 and 21.8 µM (inactive) with NCI-H226.

Regarding `Cn1c2c3c(F)c(F)ccc3nc-2cc2ccccc21`, the GI50 with TK-10 was 0.828 µM (active); in the assay on UACC-62, 3.44 µM (inactive); with M14, 2.11 µM (inactive); in the assay on HCT-15 it was 1.49 µM; in the assay with OVCAR-5, 1.92 µM (inactive); in the assay with SF-295 it was 1.12 µM (active). Further, the GI50 in the assay with SK-OV-3 is 5.57 µM (inactive); with HOP-92 it was 4.76 µM (inactive); in the assay with 786-0 it was 0.519 µM (active); with U-251, 1.58 µM (inactive); with MDA-MB-435, 3.88 µM (inactive); in the assay on MCF7, 0.431 µM (active). The GI50 was 1.74 µM (inactive) with OVCAR-8; 1.32 µM (inactive) in the assay on HCC 2998; 3 µM (inactive) with BT-549; 0.861 µM (active) in the assay with SN12C; 1.49 µM (inactive) in the assay with SW-620; 1.07 µM (active) in the assay with LOX IMVI. Besides, the GI50 in the assay on MOLT-4 is 0.324 µM (active); with NCI-H226, 2.59 µM (inactive).

Turning to `C#C[C@]1(O)CC[C@H]2[C@@H]3CCC4=C/C(=N\OCCN5CCCC5)CC[C@]4(C)[C@H]3CC[C@@]21C`, the GI50 in the assay on TK-10 was 17.1 µM (inactive); in the assay with UACC-62 it was 10.4 µM (inactive); with M14 it was 9.82 µM (inactive); with HCT-15, 13.2 µM; in the assay on OVCAR-5, 19.2 µM (inactive); with SF-295 it was 3.72 µM (inactive). The GI50 in the assay with SK-OV-3 was 19.5 µM (inactive); in the assay on HOP-92, 29.1 µM (inactive); in the assay on 786-0, 7.11 µM (inactive); in the assay with U-251, 17.3 µM (inactive); in the assay with MDA-MB-435, 3 µM (inactive); in the assay on MCF7 it was 4.72 µM (inactive). The GI50 was 17.1 µM (inactive) in the assay on OVCAR-8; 16.6 µM (inactive) in the assay on HCC 2998; 16.3 µM (inactive) in the assay with BT-549; 16.7 µM (inactive) in the assay with SN12C; 13.5 µM (inactive) in the assay with SW-620; 11.5 µM (inactive) in the assay with LOX IMVI. Besides, the GI50 was 6.14 µM (inactive) in the assay with MOLT-4 and 20.6 µM (inactive) with NCI-H226.

Regarding `COc1cc(-c2cc(=O)c3c(OC)c(OC)c(OC)cc3o2)c(OC)c(OC)c1OC`, the GI50 with TK-10 is > 75 µM (inactive); in the assay with UACC-62, 42.5 µM (inactive); in the assay on M14, > 75 µM (inactive); with HCT-15, greater than 75 µM; with OVCAR-5 it was > 75 µM (inactive); in the assay on SF-295, > 75 µM (inactive). Moreover, the GI50 in the assay with SK-OV-3 is > 75 µM (inactive); in the assay on HOP-92 it was 14 µM (inactive); with 786-0, > 75 µM (inactive); with U-251, > 75 µM (inactive); in the assay on MDA-MB-435 it was > 75 µM (inactive); in the assay on MCF7, > 75 µM (inactive). For the same compound, the GI50 in the assay with OVCAR-8 was > 75 µM (inactive); in the assay on HCC 2998 it was > 75 µM (inactive); with BT-549, 51.5 µM (inactive); in the assay with SN12C, > 75 µM (inactive); in the assay on SW-620 it was > 75 µM (inactive); in the assay with LOX IMVI it was 63.5 µM (inactive). Besides, the GI50 was 40.2 µM (inactive) with MOLT-4 and > 75 µM (inactive) in the assay on NCI-H226.

Turning to `NC(Cn1ccc(=O)c(O)c1)C(=O)O` (stereo not given) [MIMOSINE], the GI50 in the assay on TK-10 is > 100 µM (inactive); with UACC-62, > 100 µM (inactive); in the assay on M14 it was > 100 µM (inactive); with HCT-15, greater than 100 µM; in the assay on OVCAR-5, > 100 µM (inactive); in the assay on SF-295, > 100 µM (inactive). Also, the GI50 with SK-OV-3, in the assay on HOP-92, in the assay with 786-0, in the assay on U-251, in the assay on MDA-MB-435 and in the assay on MCF7 was > 100 µM (inactive) in each case. Also, the GI50 in the assay on OVCAR-8, in the assay on HCC 2998, with BT-549, with SN12C, in the assay with SW-620 and with LOX IMVI was > 100 µM (inactive) each time. The GI50 in the assay on MOLT-4 was 72.6 µM (inactive); in the assay with NCI-H226, > 100 µM (inactive).

For the compound `OCc1ccn2c1[C@@H](O)CC2`, the GI50 in the assay with TK-10 was > 100 µM (inactive); in the assay on UACC-62 it was > 100 µM (inactive); with M14, > 100 µM (inactive); in the assay with HCT-15, greater than 100 µM; in the assay with OVCAR-5, > 100 µM (inactive); in the assay on SF-295 it was > 100 µM (inactive). For the same compound, the GI50 in the assay with SK-OV-3, with HOP-92, in the assay on 786-0, with U-251, in the assay with MDA-MB-435 and in the assay on MCF7 was > 100 µM (inactive) throughout. For the same compound, the GI50 in the assay on OVCAR-8, with HCC 2998, with BT-549, in the assay with SN12C, in the assay on SW-620 and with LOX IMVI was > 100 µM (inactive) in each case. In addition, the GI50 in the assay on MOLT-4 and with NCI-H226 was > 100 µM (inactive) in each case.

As to `CCC1(O)C=CC(=O)C=C1`, the GI50 in the assay with TK-10 is 21.1 µM (inactive); in the assay on UACC-62, 17.2 µM (inactive); in the assay with M14, 17.5 µM (inactive); with HCT-15, 17.9 µM; with OVCAR-5, 33.1 µM (inactive); with SF-295, 33.9 µM (inactive). Besides, the GI50 is 38.5 µM (inactive) with SK-OV-3; 31.8 µM (inactive) in the assay on HOP-92; 18.4 µM (inactive) in the assay on 786-0; 15.3 µM (inactive) in the assay with U-251; 29 µM (inactive) in the assay on MDA-MB-435; 24 µM (inactive) in the assay with MCF7. For the same compound, the GI50 in the assay on OVCAR-8 was 26.7 µM (inactive); with HCC 2998 it was 40.8 µM (inactive); in the assay on BT-549, 43.5 µM (inactive); with SN12C, 32.9 µM (inactive); in the assay with SW-620, 36.7 µM (inactive); in the assay with LOX IMVI, 11.6 µM (inactive). For the same compound, the GI50 with MOLT-4 was 47.3 µM (inactive); in the assay with NCI-H226, 25.5 µM (inactive).

In the case of `CN(C)c1cccc(F)c1C(=O)NC(=O)Nc1ccc(Cl)cc1`, the GI50 with TK-10 is > 100 µM (inactive); in the assay on UACC-62 it was 2.38 µM (inactive); with M14 it was 1.93 µM (inactive); in the assay with HCT-15 it was 0.579 µM; in the assay with OVCAR-5 it was 8.09 µM (inactive); in the assay with SF-295 it was 1.55 µM (inactive). Moreover, the GI50 is 3.75 µM (inactive) in the assay on SK-OV-3; 27.4 µM (inactive) in the assay on HOP-92; 2.98 µM (inactive) with 786-0; 3.69 µM (inactive) with U-251; 0.118 µM (active) in the assay on MDA-MB-435; 2.17 µM (inactive) in the assay with MCF7. The GI50 is 5.19 µM (inactive) with OVCAR-8; 1.4 µM (inactive) in the assay on HCC 2998; 8.95 µM (inactive) in the assay on BT-549; 8.83 µM (inactive) in the assay with SN12C; 1.24 µM (inactive) in the assay with SW-620; 3.01 µM (inactive) in the assay on LOX IMVI. For the same compound, the GI50 was 1.62 µM (inactive) with MOLT-4 and 5.5 µM (inactive) with NCI-H226.

For the compound `Nc1c(S(=O)(=O)O)cc(Nc2cccc(S(=O)(=O)/C=C/S(=O)(=O)O)c2)c2c1C(=O)c1ccccc1C2=O`, the GI50 was > 100 µM (inactive) in the assay with TK-10; > 100 µM (inactive) with UACC-62; > 100 µM (inactive) in the assay with M14; greater than 100 µM in the assay on HCT-15; > 100 µM (inactive) in the assay with OVCAR-5; > 100 µM (inactive) in the assay on SF-295. Also, the GI50 in the assay on SK-OV-3, in the assay on HOP-92, in the assay on 786-0, with U-251, in the assay with MDA-MB-435 and with MCF7 was > 100 µM (inactive) each time. In addition, the GI50 in the assay with OVCAR-8, in the assay with HCC 2998, with BT-549, with SN12C, with SW-620 and in the assay on LOX IMVI was > 100 µM (inactive) in each case. Also, the GI50 with MOLT-4 and with NCI-H226 was > 100 µM (inactive) in each case.

(Values after ChEMBL document CHEMBL1201862, “PubChem BioAssay data set” (2004).)
